“Also recorded” adds a separate entry of the source. Where two headings read alike, the source gives them in different places.
Tests used:
[1] = In vitro metabolism in human liver microsomes; format: in vitro ADME
Protocol: After pre-warming the mixture at 37° C. for 5 minutes, the reaction was initiated by the addition of 1 mM of NADPH and incubated for 60 minutes at 37° C. in a shaking water bath. The reaction was terminated by the addition of 0.5 mL ice-cold acetonitrile. Time 0 incubation was also performed by adding acetonitrile before the addition of microsomes to the incubation mixture as a reference sample for each species. Following vortex and centrifugation at 15,000 g for 3 minutes at room temperature, resulting supernatant was concentrated under nitrogen flow at 33° C., until approximately 0.5 mL of sample remained. The extract was then transferred to a 1.5-mL centrifuge vial for centrifugation at 15,000 g for 3 minutes. Finally, aliquots of the supernatant were transferred to HPLC vials for HPLC-MS analyses.
MS Analysis: Mass spectral analyses were performed on an Agilent single quadruple mass spectrometer equipped with an Agilent 1100 HPLC system. The mass spectrometer was fitted with an electrospray ionization (ESI) source and operated in a negative scan mode between 400 and 500 amu: […]

[2] = 4-week toxicity study in cynomolgus monkeys; format: in vivo
From the text: On Day 29, surviving TS animals (all animals in study) were euthanized and subjected to a full gross necropsy, which included a macroscopic examination of the external surface of the body, all orifices, cranial cavity, external surface of the brain, the thoracic, abdominal and pelvic cavities and their viscera, cervical areas, carcass and genitalia. Organs were weighed as soon as possible from all main study animals at the scheduled necropsies. Tissues from animals at the terminal sacrifice, from animals found dead or moribund-sacrificed, and gross lesions from all animals, were embedded in paraffin, sectioned, stained with hematoxylin and eosin and examined microscopically by a board certified veterinary pathologist.

[3] = Phase 1 multiple ascending dose study, plasma pharmacokinetics in healthy adult males; format: in vivo; conditions: male, human, oral, fasted
From the text: An additional 6 subjects received placebo.
Accumulation were approximately 1.3 to 1.4 fold for C. and 1.4 to 1.5 fold for AUC0.24 (Table 12 and FIG. 8).

serum uric acid (sUA) = test: Phase 2a cross-over study in adults with gout, serum uric acid; format: in vivo, human
[4] = cynomolgus monkeys, oral 10, 30 and 150 mg/kg/day, 28 days
[5] = gout patients (sUA>7 mg/dL), once daily, Compound 1 50 mg, febuxostat 40 mg, allopurinol 300 mg, alone or combined

[2H]c1c([2H])c([2H])c2c(C(=O)c3cc(Br)c(O)c(Br)c3)c(C(C)O)oc2c1[2H] (racemic) [Compound 1, (3,5-dibromo-4-hydroxyphenyl)(2-(1-hydroxyethyl)benzofuran-3-yl-4,5,6,7-d4)methanone]
stability in human microsomes ([1]; 60 minutes incubation): stable; also recorded: more stable than benzbromarone | Parent, % MS response (parent left) ([1]; human liver microsomes 0.5 mg/mL, NADPH, 60 minutes, 37° C.): 82.5% | NOAEL, human equivalent ([2]; cynomolgus monkey, in vivo): 600 mg | NOAEL at 28 days ([2]; cynomolgus monkey, in vivo, po): 30 mg/kg | findings after 4 week recovery period ([2]; cynomolgus monkeys, 28 days oral then 4 week recovery): No finding | liver weight ([2]; cynomolgus monkeys, male, 150 mg/kg/day, 28 days): trended higher in male at 150 mg/kg/day, but no statistical difference | clinical signs [2, 4]: No abnormal clinical signs | effect on food consumption, body weight [2, 4]: no effect | mortality [2, 4]: No mortality | Cmax ([3]; 25 mg, 25 mg once daily, Day 1): 1760 ng/mL | AUC(0-t) ([3]; 25 mg, 25 mg once daily, Day 1, read-out: AUC0-24): 21200 ng·h/mL | Tmax ([3]; 25 mg, 25 mg once daily, Day 1, read-out: Tmax (median)): 3.5 h | Cmax ([3]; 25 mg, 25 mg once daily, Day 10): 2480 ng/mL | AUC(0-t) ([3]; 25 mg, 25 mg once daily, Day 10, read-out: AUC0-24): 30800 ng·h/mL | Tmax ([3]; 25 mg, 25 mg once daily, Day 10, read-out: Tmax (median)): 2.25 h | Cmax ([3]; 50 mg, 50 mg once daily, Day 1): 3550 ng/mL | AUC(0-t) ([3]; 50 mg, 50 mg once daily, Day 1, read-out: AUC0-24): 39600 ng·h/mL | Tmax ([3]; 50 mg, 50 mg once daily, Day 1, read-out: Tmax (median)): 2 h | Cmax ([3]; 50 mg, 50 mg once daily, Day 10): 4590 ng/mL | AUC(0-t) ([3]; 50 mg, 50 mg once daily, Day 10, read-out: AUC0-24): 58200 ng·h/mL | Tmax ([3]; 50 mg, 50 mg once daily, Day 10, read-out: Tmax (median)): 2.5 h | Cmax ([3]; 75 mg, 75 mg once daily, Day 1): 5200 ng/mL | AUC(0-t) ([3]; 75 mg, 75 mg once daily, Day 1, read-out: AUC0-24): 55600 ng·h/mL | Tmax ([3]; 75 mg, 75 mg once daily, Day 1, read-out: Tmax (median)): 1.75 h | Cmax ([3]; 75 mg, 75 mg once daily, Day 10): 6770 ng/mL | AUC(0-t) ([3]; 75 mg, 75 mg once daily, Day 10, read-out: AUC0-24): 84700 ng·h/mL | Tmax ([3]; 75 mg, 75 mg once daily, Day 10, read-out: Tmax (median)): 1.5 h | patients with sUA levels below 5 mg/dL (serum uric acid (sUA); [5]): 93% | patients with sUA levels below 6 mg/dL (serum uric acid (sUA); [5]): 96% | sUA level at 24 hr post-dose in all patients (serum uric acid (sUA); gout patients, 7 days dosing, 50 mg): below 6 mg/dL | sUA after treatment in mildly renal impaired patients (serum uric acid (sUA); gout patients, Compound 1 50 mg once daily, from 8.6±1.1 mg/dL): 4.5 ± 0.8 mg/dL | mean sUA level reached at maximum (serum uric acid (sUA); gout patients, mean baseline 8.9 mg/dL, once daily, Compound 1 50 mg, febuxostat 40 mg, allopurinol 300 mg, alone (Day 7/Day 21) or combined): 4.2 mg/dL | reduction of mean sUA from baseline (serum uric acid (sUA); gout patients, once daily, Compound 1 50 mg, febuxostat 40 mg, allopurinol 300 mg, alone (Day 7/Day 21) or combined): 53% | sUA % change from baseline (serum uric acid (sUA); one subject with albuminuria, sequential 7-day periods: Compound 1 50 mg (Day 7), Compound 1 50 mg/allopurinol 300 mg (Day 14), allopurinol 300 mg (Day 21)): −50.9%
